Assay results: US6582714B1, “Article for insert control by passive evaporation of an active ingredient” (priority 1995, dated 2003)

How the values were obtained:
[1] = Volatility index calculation (concentration in air from vapor pressure); assay type: physicochemical; settings: for CONCENTRATION IN AIR: calculated from vapor pressure by ideal gas equation, 20 to 25° C.; for VOLATILITY INDEX: concentration in the air relative to DEET at 20 to 25° C.
A. aegypti mosquitoes [2] = experiment: Activity index calculation (volatility index x weight index); settings: volatility index multiplied by weight index; DEET = 1.00
Protocol: The “activity index” is obtained by the multiplying the volatility index and the weight index. The activity index is an attempt to predict the combined effect of volatility and potency by weight in the usefulness of an insect control active ingredient for insect control of flying insects by passive evaporation. The following activity indices were calculated from the volatility and weight indices given, above: […]

A. aegypti mosquitoes [3] = experiment: Olfactometer test (repellency from target air stream); assay type: in vivo; settings: for mg to reach RD90: dose at which 90% of control population driven from target, 28 x 10 cm filter paper, female mosquitoes; for WEIGHT INDEX: ratio of weight of ingredient versus weight of DEET to achieve RD90, 25° C.
Text: The olfactometer test provides a means for measuring the effect of a volatile active ingredient on flying insects under precisely controlled conditions. Mosquitoes are used as the test insect. In this and the other Examples, below, the mosquitoes were A. aegypti. The olfactometer used for the olfactory tests described below generates two uniform, laminar flow air streams. These air streams consist of a target air stream superimposed upon and centered within a carrier air stream.
The olfactometer provides a square testing surface with an area of 929 cm^2. The testing area consists of a circular target area of 42 cm^2 centered on a square background surface area of 887 cm^2. In the tests described, a 200 ml/min flow of carbon dioxide was introduced into the carrier air stream to activate the mosquitoes. […] The flow rate of the carrier air stream was 300 to 350 liters/min. […] Elevated temperature and humidity at the level described for the target air stream are known to be attractive to mosquitoes. The flow rate of the target air stream was 12 liters/min.
The olfactometer has an air flow duct through which the carrier air flow strewn passes. A glass cylinder having one closed and one open end, an internal diameter of 6 cm and a depth of 14 cm is located within the air flow duct, with the longitudinal axis of the glass cylinder oriented parallel to the direction of flow of the carrier air flow stream, with the open end of the cylinder pointing down stream. The target air stream is generated by releasing a flow of temperature and humidity conditioned air into the glass cylinder near its closed end, from which point the air flows the length of the glass cylinder to exit at its open end.
Active insect control ingredients to be tested are impregnated in a filter paper test substrate (Grade 615 from VWR Scientific Inc.) having a length of 28 cm and a width of 10 cm. The filter paper test substrate is folded into a fluted cylinder and inserted coaxially within the glass cylinder to rest at a location between the point where the air is released into the glass cylinder and the open end of the glass cylinder. By this arrangement, the target air stream is caused to pass over the surface of the filter paper test substrate so that any active insect control ingredient present in the filter paper test substrate may evaporate into the target air stream before the target air stream exits the glass cylinder to continue, embedded within the flow of the carrier air stream.
Cubic test cages having 30.5 cm edges were constructed of four glass panels, with two opposing sides of the cubic test cages being open. One open side was designated the test panel and was covered with an airflow-transmitting, mosquito-retaining mesh. The opposite open side was covered with a closeable sleeve made of a tubular, open-weave, mosquito-retaining fabric well known in the art as “stockinet.” For any given test, the test cage normally contained from 250 to 350 female mosquitoes.
The test cage was placed in the air stream with the test panel facing and perpendicular to the direction of flow of the air streams of the olfactometer. In order to allow the mosquitoes to become activated by the carbon dioxide of the air streams, the test cage first was placed in the olfactometer for an initial 5 minute conditioning exposure. The test cage then was removed from the olfactometer for 3 minutes and then placed back in the olfactometer for a second 5 minute conditioning exposure. The test cage was again removed from the olfactometer for 3 minutes, during which time a control filter paper test substrate was inserted within the glass cylinder of the olfactometer. The test cage was then placed on the olfactometer for a 10 minute control exposure. The same procedure was repeated, using each time a filter paper test substrate impregnated with increasing amounts of active insect control ingredient. […]

A. aegypti mosquitoes [4] = experiment: Chamber test, first series (box fan), mosquito repellency and knock-down; assay type: in vivo; settings: at least 50% repellency within 20 minutes with not more than a gram
Text: (§1) The chamber test protocol was developed to realistically model actual use conditions for the insect control article of the invention. A closed, generally featureless, approximately 28 m^3, box-like test chamber is used, the size of a small room. Six mosquito knock-down cages are distributed vertically within the test chamber, suspended from poles adjacent to opposite test chamber side walls, where they can be observed from outside the test chamber through chamber windows. Mosquitoes in the cages are observed during a test to evaluate the ability of a material being tested to knock down mosquitoes. An insect “knocked down” is one that is incapable of flying and usually is moribund in appearance. The insect may or may not actually be dead. The knock-down cages are cylindrical, approximately 6 cm long and 8 cm in diameter, and have screened but otherwise open ends.
(§2) Two repellency mosquito cages are also provided. The repellency cages are box-like screened cages, approximately 73 cm long and 16 cm square in cross section. All of the walls of the repellency cages are screened but otherwise generally open. Each repellency cage is divided by a clear plastic partition into a first holding area, which occupies approximately 45 cm of the length of the cage, and a second holding area, which occupies the remaining 28 cm. The plastic partition has a 4 cm diameter hole in its center that provides the only route by which mosquitoes may pass between the two holding areas. The repellency cages are mounted in a test chamber wall, with the plastic partition located in the plane of the test chamber wall, and are so oriented that the first holding area projects inwardly, into the test chamber, while the second holding area projects through the test chamber wall, out into normal room air.
(§3) A mouse cage essentially identical to a mosquito knock-down cage is mounted on the end of the first holding chamber of each repellency test cage that faces toward the interior of the test chamber. The mouse cage is separated from the repellency cage only by a mosquito-proof screen. One mouse is placed in the mouse cage during a test to provide an attractant for mosquitoes being held in the repellency test cage. Mosquitoes in the first holding area of a repellency cage thus are attracted toward the mouse, on the one hand, and repelled by the insect control article being tested, on the other hand.
(§4) When a test is run, fifty female mosquitoes are placed in the first holding area of each mosquito cage, with the partition hole closed by a removable door. Ten female mosquitoes are placed in each knock-down cage. The insect control article to be tested is placed centrally within the test chamber and the air flow is initiated. At timed intervals up to a total testing period of two hours, each knock-down cage and each repellency cage is visually examined, and the location, number, and condition of the mosquitoes are noted. The number of mosquitoes that have been driven to the second holding area provides a measure of the repellency of the insect control article being tested. The number of mosquitoes knocked down in the knock-down cages is also recorded. The general success of an insect control article is judged by both the mosquitoes repelled and those knocked down, in that both effects reduce the total number of mosquitoes available for biting.
Two series of tests were run using the chamber test protocol to evaluate the effect of insect control articles made in accordance with the invention. […]

A. aegypti mosquitoes [5] = experiment: Chamber test, second series (small blower, 0.06 m^3 per minute); assay type: in vivo
Text: as §1, §2, §3, §4
In an additional series of tests using the chamber protocol, two insect control active ingredients were tested for their ability to achieve the preferred practical control level, defined above. The experiment of the first series was substantially repeated except that the substrate was a 0.5 cm thick, 4.5 cm diameter coil of common corrugated cardboard, with the channels of the corrugation presented endwardly to the direction of air flow. […]

[6] = 0.5 cm thick, 4.5 cm diameter corrugated cardboard coil, blower 0.06 m^3 per minute, two hour test, NA = not achieved
[7] = 0.072 gm applied directly to the nine blades of the small blower, 0.06 m^3 per minute, two hour testing period

Row | Molecule | CONCENTRATION IN AIR [1] | VOLATILITY INDEX [1] | ACTIVITY INDEX (A. aegypti mosquitoes [2]) | mg to reach RD90 (A. aegypti mosquitoes [3]) | WEIGHT INDEX (A. aegypti mosquitoes [3]) | practical insect control as defined (minimum practical control standard) (A. aegypti mosquitoes [4]) | Minutes to RD50 (A. aegypti mosquitoes [5]; [6]) | KD50 (A. aegypti mosquitoes [5]; [7]) | RD50 (A. aegypti mosquitoes [5]; [7]) | RD90 (A. aegypti mosquitoes [5]; [7]) | Minutes to KD50 (A. aegypti mosquitoes [5]; [6]) | Minutes to RD90 (A. aegypti mosquitoes [5]; [6])
1 | Cc1c(F)c(F)c(COC(=O)[C@@H]2[C@H](/C=C(\Cl)C(F)(F)F)C2(C)C)c(F)c1F (racemic) [Tefluthrin] | 1.37 × 10^−5 grams per liter | 0.797 | 0.011 | 1.3 milligrams/filter paper test substrate | 0.014 |  |  |  |  |  |  | 
2 | C=CCC1=C(C)C(OC(=O)C2C(C=C(C)C)C2(C)C)CC1=O (stereo not drawn) [Allethrin (90% active), Allethrin] | 1.92 × 10^−6 grams per liter | 0.112 | 0.0095 | 8.0 milligrams/filter paper test substrate | 0.085 |  |  |  |  |  |  | 
3 | C=CCC1=C(C)C(OC(=O)[C@@H]2[C@@H](C=C(C)C)C2(C)C)CC1=O (stereo partly drawn) [Bioallethrin] | 1.46 × 10^−6 grams per liter | 0.085 | 0.0049 | 5.5 milligrams/filter paper test substrate | 0.058 |  |  |  |  |  |  | 
4 | CC1(C)C(C=C(Cl)Cl)C1C(=O)OC(C#N)c1ccc(F)c(Oc2ccccc2)c1 (stereo not drawn) [Cyfluthrin] | <7.11 × 10^−9 grams per liter | <0.00041 |  | >1000 milligrams/filter paper test substrate | >10.5 |  |  |  |  |  |  | 
5 | CC(C)=CC1C(C(=O)OC(C#N)c2cccc(Oc3ccccc3)c2)C1(C)C (stereo not drawn) [Cyphenothrin] | 1.85 × 10^−8 grams per liter | 0.0011 | ˜0.011 | ˜1000 milligrams/filter paper test substrate | ˜10.5 |  |  |  |  |  |  | 
6 | COP(=O)(OC)OC=C(Cl)Cl [DDVP] | 2.63 × 10^−5 grams per liter | 1.53 | 0.60 | 40 milligrams/filter paper test substrate | 0.42 | achieved |  |  |  |  |  | 
7 | CCN(CC)C(=O)c1cccc(C)c1 [DEET, N,N-diethyl-meta-toluamide] | 1.72 × 10^−5 grams per liter | 1.00 | 1.00 | 95 milligrams/filter paper test substrate | 1.00 |  |  |  |  |  |  | 
8 | C=CCC1=C(C)C(OC(=O)[C@@H]2[C@@H](C=C(C)C)C2(C)C)CC1=O (stereo partly drawn) [Esbiothrin] | 5.35 × 10^−6 grams per liter | 0.311 | 0.0146 | 4.5 milligrams/filter paper test substrate | 0.047 | achieved |  |  |  |  |  | 
9 | CC1(C)C(C=C(Cl)Cl)C1C(=O)OCc1cccc(Oc2ccccc2)c1 (stereo not drawn) [Permethrin] | 7.11 × 10^−9 grams per liter | 0.00041 | >0.004 | >1000 milligrams/filter paper test substrate | >10.5 |  |  |  |  |  |  | 
10 | C#CCC1=C(C)C(OC(=O)C2C(C=C(C)C)C2(C)C)CC1=O (stereo not drawn) [Prallethrin] | 5.80 × 10^−7 grams per liter | 0.034 | 0.0020 | 5.5 milligrams/filter paper test substrate | 0.058 | achieved | failed to achieve |  |  |  |  | 
11 | CNC(=O)Oc1ccccc1OC(C)C [Propoxur (Baygon), Propoxur] |  |  |  | >120 milligrams/filter paper test substrate | >1.26 |  |  |  |  |  |  | 
12 | CC1(C)[C@H](C=C(Cl)Cl)[C@H]1C(=O)OCc1c(F)c(F)cc(F)c1F [Transfluthrin] | 6.09 × 10^−8 grams per liter | 0.0035 | 0.00002 | 0.57 milligrams/filter paper test substrate | 0.0059 | achieved | 30 min | never achieved | never achieved | never achieved | 20 min | 80 min
13 | C#CC(OC(=O)C1C(C=C(C)C)C1(C)C)/C(C)=C/CC (stereo not drawn) [Vaporthrin] | 9.75 × 10^−6 grams per liter | 0.567 | 0.033 | 5.3 milligrams/filter paper test substrate | 0.058 | achieved |  |  |  |  |  | 
14 | Pentecychlothrin [Pentecychlothrin (Zhong X1)] | 3.64 × 10^−7 grams per liter | 0.021 | 0.0018 | 8.1 milligrams/filter paper test substrate | 0.085 |  |  |  |  |  |  | 
